These results are taken from PubChem BioAssay (NCI).

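All cell lines were grown in 96-well plates and treated with compound for 48 hours. Abbreviation: GI50, concentration required for 50% inhibition of growth. The concentration for full growth arrest is given as TGI.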

Among the test systems are UO-31 renal; BT-549 breast; HT29 colon; ACHN renal; CAKI-1 renal; SR leukemia; M14 melanoma; SK-MEL-2 melanoma; SK-MEL-28 melanoma; NCI-H460 lung.
What all share (test): NCI-60 cell line screen, 48 h

Take `CC(=O)Nc1ccc(CC[C@H]2CCC/C=C/[C@@H]3C[C@H](O)C[C@H]3[C@H](O)/C=C/C(=O)O2)cc1`: the GI50 in the assay on UO-31 renal was 0.316 µM; with BT-549 breast it was 0.182 µM; in the assay with HT29 colon, 0.119 µM; with ACHN renal, 0.375 µM; with CAKI-1 renal, 0.361 µM; with SR leukemia, 0.215 µM. For the same molecule, the GI50 with M14 melanoma was 0.153 µM; in the assay with SK-MEL-2 melanoma, 0.313 µM; in the assay with SK-MEL-28 melanoma, 0.0362 µM; with NCI-H460 lung, 0.365 µM. Besides, the TGI was greater than 100 µM in the assay with BT-549 breast; 0.951 µM in the assay on HT29 colon; greater than 47.2 µM in the assay on ACHN renal; greater than 21.2 µM in the assay with CAKI-1 renal; greater than 100 µM with M14 melanoma; 0.963 µM in the assay with SK-MEL-2 melanoma. Moreover, the TGI is 0.197 µM in the assay with SK-MEL-28 melanoma and greater than 100 µM in the assay with NCI-H460 lung.
Consider `CCCN1CCC(Oc2cc(Nc3nc(Nc4cccc(F)c4C(N)=O)c4cc[nH]c4n3)c(OC)cc2Cl)CC1`, for which the GI50 was 2.94 µM in the assay on UO-31 renal; 3.75 µM in the assay with BT-549 breast; 0.565 µM with HT29 colon; 4.01 µM in the assay on ACHN renal; 3.58 µM with CAKI-1 renal; 1.02 µM in the assay with SR leukemia. Also, the GI50 in the assay with M14 melanoma is 0.859 µM; in the assay with SK-MEL-2 melanoma, 4.5 µM; with SK-MEL-28 melanoma, 2.82 µM; with NCI-H460 lung, 1.45 µM. Besides, the TGI with UO-31 renal was determined as 8.93 µM; in the assay with BT-549 breast, 7.36 µM; with HT29 colon, 1.6 µM; in the assay on ACHN renal, 7.99 µM; in the assay with CAKI-1 renal it was 7.64 µM; in the assay on SR leukemia, 6.52 µM. The TGI came to 2.88 µM with M14 melanoma, 8.32 µM in the assay with SK-MEL-2 melanoma, 6.09 µM in the assay with SK-MEL-28 melanoma and 4.79 µM with NCI-H460 lung.
`COc1ccc(CC(C)NCC(O)c2ccc(O)c(NC=O)c2)cc1` (centres undefined): the TGI in the assay on UO-31 renal, in the assay with BT-549 breast, in the assay with HT29 colon, in the assay with ACHN renal, in the assay with CAKI-1 renal and with SR leukemia was greater than 100 µM in each case. Moreover, the TGI in the assay on M14 melanoma, with SK-MEL-2 melanoma, in the assay on SK-MEL-28 melanoma and with NCI-H460 lung was greater than 100 µM each time.
With `COc1cccc2c1C(=O)c1c(O)c3c(c(O)c1C2=O)C[C@@](O)(/C(C)=N/NC(=O)c1cccc([N+](=O)[O-])c1)C[C@@H]3OC1CC(N)C(O)C(C)O1` (some centres undefined), the GI50 in the assay with UO-31 renal was 0.882 µM; with BT-549 breast, 0.714 µM; with HT29 colon it was 0.238 µM; in the assay on ACHN renal, 0.205 µM; in the assay on CAKI-1 renal, 0.411 µM; in the assay with SR leukemia, 0.0155 µM. For the same molecule, the GI50 in the assay with M14 melanoma is 0.324 µM; with SK-MEL-2 melanoma, 0.996 µM; in the assay with SK-MEL-28 melanoma, 0.608 µM; with NCI-H460 lung it was 0.0548 µM. The TGI is greater than 22 µM with UO-31 renal; 4.43 µM in the assay on BT-549 breast; 11.2 µM with HT29 colon; 1.65 µM in the assay with ACHN renal; 2.74 µM with CAKI-1 renal; 1.51 µM in the assay on M14 melanoma. Moreover, the TGI came to 3.23 µM in the assay on SK-MEL-2 melanoma, 2.45 µM with SK-MEL-28 melanoma and 12.9 µM in the assay on NCI-H460 lung.
With `COc1cc2c(cc1OCCCCCOc1ccc(-c3nc4ccccc4s3)cc1)N=C[C@@H]1CCCN1C2=O`, the GI50 in the assay on UO-31 renal was 2.5 µM; in the assay on BT-549 breast, 3.45 µM; with HT29 colon it was 1.58 µM; in the assay with ACHN renal, 2.73 µM; in the assay with CAKI-1 renal, 2.36 µM; in the assay with SR leukemia, 0.222 µM. Moreover, the GI50 is 1.46 µM in the assay on M14 melanoma, 4.86 µM with SK-MEL-2 melanoma, 8.74 µM with SK-MEL-28 melanoma and 1.27 µM with NCI-H460 lung. The TGI is 13.4 µM in the assay with UO-31 renal; 16.4 µM in the assay with BT-549 breast; 18 µM in the assay on HT29 colon; 27.6 µM in the assay on ACHN renal; greater than 62 µM in the assay on CAKI-1 renal; 1.43 µM in the assay with SR leukemia. The TGI in the assay with M14 melanoma came out at 9.08 µM; in the assay with SK-MEL-2 melanoma, 16.2 µM; with SK-MEL-28 melanoma, 31.7 µM; with NCI-H460 lung, 7.66 µM.
`CC(C)(C)CNCCO`: the TGI in the assay on UO-31 renal, in the assay on BT-549 breast, with HT29 colon, in the assay on ACHN renal, in the assay on CAKI-1 renal and in the assay with SR leukemia was greater than 100 µM each time. Further, the TGI in the assay on M14 melanoma, with SK-MEL-2 melanoma, in the assay with SK-MEL-28 melanoma and in the assay on NCI-H460 lung was greater than 100 µM in each case.
On to `C/C(=C1\C(=O)Nc2ccccc21)c1cccc(/C(C)=C2/C(=O)Nc3ccccc32)n1`, for which the GI50 in the assay with UO-31 renal was 24.5 µM; in the assay on BT-549 breast, 5.43 µM; in the assay on HT29 colon it was 8.09 µM; in the assay on ACHN renal, 8.56 µM; in the assay on CAKI-1 renal, 2.34 µM; in the assay with SR leukemia, 4.96 µM. Also, the GI50 was 6.84 µM in the assay with M14 melanoma, 63.4 µM in the assay on SK-MEL-2 melanoma, 31.5 µM in the assay on SK-MEL-28 melanoma and 5.08 µM in the assay with NCI-H460 lung. For the same molecule, the TGI is greater than 100 µM in the assay on UO-31 renal; 36.5 µM with BT-549 breast; greater than 100 µM with HT29 colon; 48.1 µM in the assay with ACHN renal; 24.3 µM in the assay on CAKI-1 renal; greater than 100 µM in the assay with SR leukemia. Further, the TGI with M14 melanoma, in the assay on SK-MEL-2 melanoma, in the assay on SK-MEL-28 melanoma and in the assay on NCI-H460 lung was greater than 100 µM throughout.
In the case of `C[C@]12CC[C@H]3[C@@H](CCC4=CC(=O)CC[C@@]43C)[C@]1(O)CC[C@]2(O)C(=O)CO`, the TGI in the assay on UO-31 renal, in the assay with BT-549 breast, in the assay on HT29 colon, in the assay on ACHN renal, with CAKI-1 renal and in the assay on SR leukemia was greater than 100 µM each time. Besides, the TGI in the assay with M14 melanoma, in the assay with SK-MEL-2 melanoma, with SK-MEL-28 melanoma and with NCI-H460 lung was greater than 100 µM throughout.
As for `COc1ccc2c(c1[N+](=O)[O-])CC[C@@H]1[C@@H]2CC[C@]2(C)C(=O)CC[C@@H]12`, the GI50 was greater than 824 µM in the assay on UO-31 renal; 470 µM in the assay on BT-549 breast; greater than 1000 µM with HT29 colon; 424 µM with ACHN renal; 660 µM in the assay on CAKI-1 renal; greater than 25 µM with SR leukemia. The GI50 was greater than 562 µM in the assay with M14 melanoma, 275 µM with SK-MEL-2 melanoma, greater than 843 µM with SK-MEL-28 melanoma and greater than 756 µM in the assay with NCI-H460 lung. Besides, the TGI in the assay with UO-31 renal, with BT-549 breast, in the assay with HT29 colon, in the assay on ACHN renal, with CAKI-1 renal and with SR leukemia was greater than 1000 µM each time. In the assay on M14 melanoma, the TGI was greater than 562 µM.
For `O=C(Nc1ccc(Nc2ccc3c(c2)C(=O)c2ccccc2C3=O)c2c1C(=O)c1ccccc1C2=O)c1ccccc1`, the TGI with UO-31 renal is greater than 100 µM; with BT-549 breast, greater than 100 µM; in the assay on HT29 colon, greater than 100 µM; in the assay on ACHN renal, greater than 100 µM; with CAKI-1 renal, greater than 100 µM; with SR leukemia, 17.1 µM. Moreover, the TGI with M14 melanoma is greater than 100 µM; with SK-MEL-2 melanoma it was greater than 30.5 µM; in the assay with SK-MEL-28 melanoma, greater than 100 µM; in the assay on NCI-H460 lung, 35.4 µM.
In the case of `O=c1[nH]c(=O)n(Cc2ccc(C34CC5CC(CC(C5)C3)C4)c(O)c2)cc1F`, the GI50 was 14.2 µM with UO-31 renal; 14.4 µM in the assay on BT-549 breast; 14.2 µM with HT29 colon; 12.5 µM in the assay on ACHN renal; 17.7 µM in the assay with CAKI-1 renal; 5.32 µM in the assay on SR leukemia. Besides, the GI50 is 11.5 µM in the assay with M14 melanoma, 15.8 µM in the assay on SK-MEL-2 melanoma, 4.62 µM with SK-MEL-28 melanoma and 16.5 µM with NCI-H460 lung. The TGI in the assay with UO-31 renal was 29.8 µM; in the assay with BT-549 breast it was 28.1 µM; in the assay with HT29 colon, 37.2 µM; in the assay with ACHN renal, 25.2 µM; in the assay with CAKI-1 renal, 37.5 µM; in the assay on SR leukemia, 19.9 µM. For the same molecule, the TGI was 29.2 µM in the assay with M14 melanoma, 39.4 µM with SK-MEL-2 melanoma, 21.8 µM in the assay on SK-MEL-28 melanoma and 43 µM in the assay on NCI-H460 lung.
For `CN1CCC2(CC1)C(=O)Nc1cc(NC(=O)c3ccc4c(c3)C[C@@H]3C(C)(C)[C@H](O)[C@H](F)C[C@@]3(C)O4)ccc12`, the GI50 is 4.67 µM in the assay on UO-31 renal; 0.0691 µM with BT-549 breast; 2.94 µM in the assay on HT29 colon; 8.59 µM in the assay on ACHN renal; 1.34 µM in the assay on CAKI-1 renal; 0.0514 µM in the assay on SR leukemia. In addition, the GI50 in the assay on M14 melanoma was 0.549 µM; with SK-MEL-2 melanoma, 11.3 µM; with SK-MEL-28 melanoma it was 1.53 µM; in the assay with NCI-H460 lung, 0.684 µM. Moreover, the TGI was 19.1 µM with UO-31 renal; 20.1 µM with BT-549 breast; 36.8 µM in the assay on HT29 colon; greater than 100 µM in the assay on ACHN renal; 18.7 µM in the assay on CAKI-1 renal; 88.2 µM in the assay on SR leukemia. The TGI in the assay on M14 melanoma was 4.37 µM; in the assay on SK-MEL-2 melanoma, 32.3 µM; in the assay on SK-MEL-28 melanoma, 14.5 µM; with NCI-H460 lung, 25.4 µM.
